Molecular target: P. falciparum apicoplast DNA polymerase (Pf-apPOL) (Plasmodium falciparum, UniProt Q8ILY1)
Test: Fluorescence-based high-throughput DNA polymerase assay (molecular beacon), primary screen and dose-response
Type: biochemical
Procedure, shortened: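 Single-point screening used 10 µM compound with 20 nM polymerase, 20 nM hairpin substrate and 6 µM dNTPs for 90 min at 25 °C. Confirmatory titrations (2.5–80 µM) followed fluorescence at three times, and IC50 was derived from a fit including a cooperativity term n.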

[1] = primary screen value of the 186 hits; unit not given; 90 min, 10 µM
[2] = supplemental file 2, sheet IC50 nontoxic compounds; Pf-apPOL
[3] = primary screen value by plate and well; 90 min, 10 µM

Sequence of P. falciparum apicoplast DNA polymerase (Pf-apPOL) (Q8ILY1 entry or part of it): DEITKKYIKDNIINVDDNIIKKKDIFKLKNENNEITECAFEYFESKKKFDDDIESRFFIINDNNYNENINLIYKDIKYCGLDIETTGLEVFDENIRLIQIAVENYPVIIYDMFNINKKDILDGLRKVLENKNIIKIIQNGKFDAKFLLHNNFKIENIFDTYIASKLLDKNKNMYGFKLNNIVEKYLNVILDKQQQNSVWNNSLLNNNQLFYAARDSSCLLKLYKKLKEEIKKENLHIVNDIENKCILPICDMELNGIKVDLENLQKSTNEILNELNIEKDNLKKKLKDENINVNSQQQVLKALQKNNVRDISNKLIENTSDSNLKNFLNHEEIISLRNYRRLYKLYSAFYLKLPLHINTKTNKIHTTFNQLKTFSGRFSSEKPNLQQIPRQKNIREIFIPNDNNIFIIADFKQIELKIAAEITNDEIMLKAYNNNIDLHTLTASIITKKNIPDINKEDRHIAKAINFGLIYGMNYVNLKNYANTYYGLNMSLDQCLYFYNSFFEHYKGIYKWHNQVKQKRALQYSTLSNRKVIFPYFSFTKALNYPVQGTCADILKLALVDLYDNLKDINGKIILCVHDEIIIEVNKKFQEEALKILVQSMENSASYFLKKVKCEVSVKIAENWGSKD

With `COc1cc(/C=C2\C(=O)N(c3ccc(C(=O)O)cc3)N=C2C(F)(F)F)ccc1OCC(C)C` [KU0069072] the “% inhibition Apo pol 10'” value (DRC-1; concentration 2.5; 10') was 27.3475%, the “% inhibition Apol 90'” value (DRC-1; concentration 2.5; 90') was 15.3217% and the “% inhibition apPOL 180'” value (DRC-1; concentration 2.5; 180') was 6.275%. The “% inhibition Apo pol 10'” value (DRC-1; concentration 5; 10') was 10.3149%, the “% inhibition Apol 90'” value (DRC-1; concentration 5; 90') was -0.5045% and the “% inhibition apPOL 180'” value (DRC-1; concentration 5; 180') was -5.844%. For the same compound, the “% inhibition Apo pol 10'” value (DRC-1; concentration 10; 10') was 46.067%, the “% inhibition Apol 90'” value (DRC-1; concentration 10; 90') was 33.8794% and the “% inhibition apPOL 180'” value (DRC-1; concentration 10; 180') was 21.4839%. For the same compound, the “% inhibition Apo pol 10'” value (DRC-1; concentration 20; 10') was 70.4954%, the “% inhibition Apol 90'” value (DRC-1; concentration 20; 90') was 63.3531% and the “% inhibition apPOL 180'” value (DRC-1; concentration 20; 180') was 50.844%. For the same compound, the “% inhibition Apo pol 10'” value (DRC-1; concentration 40; 10') was 88.0061%, the “% inhibition Apol 90'” value (DRC-1; concentration 40; 90') was 82.4517% and the “% inhibition apPOL 180'” value (DRC-1; concentration 40; 180') was 75.9132%. For the same compound, the “% inhibition Apo pol 10'” value (DRC-1; concentration 80 (unit not given); 10') was 95.6412%, the “% inhibition Apol 90'” value (DRC-1; concentration 80; 90') was 93.9861% and the “% inhibition apPOL 180'” value (DRC-1; concentration 80; 180') was 92.8608%. The “% inhibition Apo pol 5'” value (DRC-2; concentration 2.5; 5') was 4%, the “% inhibition Apol 40'” value (DRC-2; concentration 2.5; 40') was 4.27% and the “% inhibition ApPOL 90'” value (DRC-2; concentration 2.5; 90') was 2.38%. The “% inhibition apPOL 180'” value (DRC-2; concentration 2.5; 180') was 0.394%, the “% inhibition Apo pol 5'” value (DRC-2; concentration 5; 5') was -3.52% and the “% inhibition Apol 40'” value (DRC-2; concentration 5; 40') was -5%. The “% inhibition ApPOL 90'” value (DRC-2; concentration 5; 90') was -7%, the “% inhibition apPOL 180'” value (DRC-2; concentration 5; 180') was -9% and the “% inhibition Apo pol 5'” value (DRC-2; concentration 10; 5') was 24%. For the same compound, the “% inhibition Apol 40'” value (DRC-2; concentration 10; 40') was 28%, the “% inhibition ApPOL 90'” value (DRC-2; concentration 10; 90') was 25% and the “% inhibition apPOL 180'” value (DRC-2; concentration 10; 180') was 15%. For the same compound, the “% inhibition Apo pol 5'” value (DRC-2; concentration 20; 5') was 44%, the “% inhibition Apol 40'” value (DRC-2; concentration 20; 40') was 51% and the “% inhibition ApPOL 90'” value (DRC-2; concentration 20; 90') was 50%. The “% inhibition apPOL 180'” value (DRC-2; concentration 20; 180') was 40%, the “% inhibition Apo pol 5'” value (DRC-2; concentration 40; 5') was 59% and the “% inhibition Apol 40'” value (DRC-2; concentration 40; 40') was 70%. For the same compound, the “% inhibition ApPOL 90'” value (DRC-2; concentration 40; 90') was 71%, the “% inhibition apPOL 180'” value (DRC-2; concentration 40; 180') was 66% and the “% inhibition Apo pol 5'” value (DRC-2; concentration 80; 5') was 65%. The “% inhibition Apol 40'” value (DRC-2; concentration 80; 40') was 78%, the “% inhibition ApPOL 90'” value (DRC-2; concentration 80; 90') was 80% and the “% inhibition apPOL 180'” value (DRC-2; concentration 80; 180') was 82%. For the same compound, the “DNA Pol” value [1] was 76 and the “DNA Pol” value (primary screen value; head prints only 'DNA Pol'; 90 min, 10 µM) was 76.

With `CSC(C)C(=O)C=CN(C)C` (stereo not drawn) [Molecule 71] the IC50 [2] was 26.9 µM.

`CCCCCCCCCCCC1SCC(C(=O)O)N1C(C)=O` (stereo not drawn) [Molecule 72] was tested, and the “% inhibition Apo pol 10'” value (DRC-1; 10'; concentration 2.5) was 3.482%, the “% inhibition Apo pol 10'” value (DRC-1; 10'; concentration 5) was 5.699% and the “% inhibition Apo pol 10'” value (DRC-1; 10'; concentration 10) was 15.2619%. For the same compound, the “% inhibition Apo pol 10'” value (DRC-1; 10'; concentration 20) was 24.1814%, the “% inhibition Apo pol 10'” value (DRC-1; 10'; concentration 40) was 35.0794% and the “% inhibition Apo pol 10'” value (DRC-1; 10'; concentration 80) was 89.6133%. The “% inhibition Apol 90'” value (DRC-1; 90'; concentration 2.5) was 2.632%, the “% inhibition Apol 90'” value (DRC-1; 90'; concentration 5) was 5.518% and the “% inhibition Apol 90'” value (DRC-1; 90'; concentration 10) was 12.9803%. For the same compound, the “% inhibition Apol 90'” value (DRC-1; 90'; concentration 20) was 20.4329%, the “% inhibition Apol 90'” value (DRC-1; 90'; concentration 40) was 28.5438% and the “% inhibition Apol 90'” value (DRC-1; 90'; concentration 80) was 88.679%. The “% inhibition apPOL 180'” value (DRC-1; 180'; concentration 2.5) was -2.715%, the “% inhibition apPOL 180'” value (DRC-1; 180'; concentration 5) was -0.6083% and the “% inhibition apPOL 180'” value (DRC-1; 180'; concentration 10) was 5.5577%. For the same compound, the “% inhibition apPOL 180'” value (DRC-1; 180'; concentration 20) was 11.4894%, the “% inhibition apPOL 180'” value (DRC-1; 180'; concentration 40) was 17.8626% and the “% inhibition apPOL 180'” value (DRC-1; 180'; concentration 80) was 86.0518%. For the same compound, the “% inhibition Apo pol 5'” value (DRC-2; 5'; concentration 2.5) was 13%, the “% inhibition Apo pol 5'” value (DRC-2; 5'; concentration 5) was 16% and the “% inhibition Apo pol 5'” value (DRC-2; 5'; concentration 10) was 26%. For the same compound, the “% inhibition Apo pol 5'” value (DRC-2; 5'; concentration 20) was 38%, the “% inhibition Apo pol 5'” value (DRC-2; 5'; concentration 40) was 54% and the “% inhibition Apo pol 5'” value (DRC-2; 5'; concentration 80) was 59%. The “% inhibition Apol 40'” value (DRC-2; 40'; concentration 2.5) was 10%, the “% inhibition Apol 40'” value (DRC-2; 40'; concentration 5) was 15% and the “% inhibition Apol 40'” value (DRC-2; 40'; concentration 10) was 29%. For the same compound, the “% inhibition Apol 40'” value (DRC-2; 40'; concentration 20) was 44%, the “% inhibition Apol 40'” value (DRC-2; 40'; concentration 40) was 65% and the “% inhibition Apol 40'” value (DRC-2; 40'; concentration 80) was 76%. The “% inhibition ApPOL 90'” value (DRC-2; 90'; concentration 2.5) was 6%, the “% inhibition ApPOL 90'” value (DRC-2; 90'; concentration 5) was 13% and the “% inhibition ApPOL 90'” value (DRC-2; 90'; concentration 10) was 26%. For the same compound, the “% inhibition ApPOL 90'” value (DRC-2; 90'; concentration 20) was 43%, the “% inhibition ApPOL 90'” value (DRC-2; 90'; concentration 40) was 67% and the “% inhibition ApPOL 90'” value (DRC-2; 90'; concentration 80) was 81%. For the same compound, the “% inhibition apPOL 180'” value (DRC-2; 180'; concentration 2.5) was 0.516%, the “% inhibition apPOL 180'” value (DRC-2; 180'; concentration 5) was 5% and the “% inhibition apPOL 180'” value (DRC-2; 180'; concentration 10) was 17%. For the same compound, the “% inhibition apPOL 180'” value (DRC-2; 180'; concentration 20) was 34%, the “% inhibition apPOL 180'” value (DRC-2; 180'; concentration 40) was 64% and the “% inhibition apPOL 180'” value (DRC-2; 180'; concentration 80) was 84%. For the same compound, the “% inhibition Apo pol 5'” value (conc. 2.5; 5'; DRC-2) was 13%, the “% inhibition ApPOL 90'” value (conc. 5; 90'; DRC-2) was 13% and the “% inhibition Apo pol 5'” value (conc. 10; 5'; DRC-2) was 26%. The “% inhibition ApPOL 90'” value (conc. 10; 90'; DRC-2) was 26%, the “DNA Pol” value [3] was 90 and the “DNA Pol” value [1] was 90. It also gave an IC50 [2] of 48.9 µM.

`CCCCc1ccc(NC(=O)CSc2nc(O)c(C#N)c(C3CCCCC3)n2)c(C)c1` [Molecule 8] showed an IC50 [2] of 8.77 µM.

`COc1ccccc1CC(=O)N1CCc2c(nc3cc(-c4ccccc4Cl)[nH]n3c2=O)C1` [Molecule 49] showed an IC50 [2] of 12.5 µM.

With `COc1ccc(-c2cc(=O)c3cc(O)ccc3o2)cc1OC` [KU0193655] the “% inhibition Apo pol 10'” value (DRC-1; 10'; concentration 2.5) was -0.1967%, the “% inhibition Apo pol 10'” value (DRC-1; 10'; concentration 5) was 8.174% and the “% inhibition Apo pol 10'” value (DRC-1; 10'; concentration 10) was 18.1231%. For the same compound, the “% inhibition Apo pol 10'” value (DRC-1; 10'; concentration 20) was 34.6118%, the “% inhibition Apo pol 10'” value (DRC-1; 10'; concentration 40) was 62.4482% and the “% inhibition Apo pol 10'” value (DRC-1; 10'; concentration 80) was 84.2826%. For the same compound, the “% inhibition Apol 90'” value (DRC-1; 90'; concentration 2.5) was 2.413%, the “% inhibition Apol 90'” value (DRC-1; 90'; concentration 5) was 7.049% and the “% inhibition Apol 90'” value (DRC-1; 90'; concentration 10) was 17.1119%. For the same compound, the “% inhibition Apol 90'” value (DRC-1; 90'; concentration 20) was 31.7706%, the “% inhibition Apol 90'” value (DRC-1; 90'; concentration 40) was 60.6022% and the “% inhibition Apol 90'” value (DRC-1; 90'; concentration 80) was 83.5295%. For the same compound, the “% inhibition apPOL 180'” value (DRC-1; 180'; concentration 2.5) was 2.832%, the “% inhibition apPOL 180'” value (DRC-1; 180'; concentration 5) was 6.576% and the “% inhibition apPOL 180'” value (DRC-1; 180'; concentration 10) was 16.442%. The “% inhibition apPOL 180'” value (DRC-1; 180'; concentration 20) was 31.1115%, the “% inhibition apPOL 180'” value (DRC-1; 180'; concentration 40) was 58.5037% and the “% inhibition apPOL 180'” value (DRC-1; 180'; concentration 80) was 84.0263%. The “% inhibition Apo pol 5'” value (DRC-2; 5'; concentration 2.5) was -0.529%, the “% inhibition Apo pol 5'” value (DRC-2; 5'; concentration 5) was 0.718% and the “% inhibition Apo pol 5'” value (DRC-2; 5'; concentration 10) was 15%. The “% inhibition Apo pol 5'” value (DRC-2; 5'; concentration 20) was 23%, the “% inhibition Apo pol 5'” value (DRC-2; 5'; concentration 40) was 39% and the “% inhibition Apo pol 5'” value (DRC-2; 5'; concentration 80) was 47%. The “% inhibition Apol 40'” value (DRC-2; 40'; concentration 2.5) was 1.36%, the “% inhibition Apol 40'” value (DRC-2; 40'; concentration 5) was 3.64% and the “% inhibition Apol 40'” value (DRC-2; 40'; concentration 10) was 19%. The “% inhibition Apol 40'” value (DRC-2; 40'; concentration 20) was 29%, the “% inhibition Apol 40'” value (DRC-2; 40'; concentration 40) was 49% and the “% inhibition Apol 40'” value (DRC-2; 40'; concentration 80) was 61%. The “% inhibition ApPOL 90'” value (DRC-2; 90'; concentration 2.5) was 0.778%, the “% inhibition ApPOL 90'” value (DRC-2; 90'; concentration 5) was 6% and the “% inhibition ApPOL 90'” value (DRC-2; 90'; concentration 10) was 20%. For the same compound, the “% inhibition ApPOL 90'” value (DRC-2; 90'; concentration 20) was 32%, the “% inhibition ApPOL 90'” value (DRC-2; 90'; concentration 40) was 53% and the “% inhibition ApPOL 90'” value (DRC-2; 90'; concentration 80) was 65%. For the same compound, the “% inhibition apPOL 180'” value (DRC-2; 180'; concentration 2.5) was -1.88%, the “% inhibition apPOL 180'” value (DRC-2; 180'; concentration 5) was 5% and the “% inhibition apPOL 180'” value (DRC-2; 180'; concentration 10) was 21%. For the same compound, the “% inhibition apPOL 180'” value (DRC-2; 180'; concentration 20) was 34%, the “% inhibition apPOL 180'” value (DRC-2; 180'; concentration 40) was 56% and the “% inhibition apPOL 180'” value (DRC-2; 180'; concentration 80) was 68%. The “DNA Pol” value [3] was 27 and the “DNA Pol” value [1] was 27.

For `O=C(O)C(=O)Nc1nc(-c2ccc3c(c2)OCCO3)cs1` [Molecule 82], the IC50 [2] was 40.5 µM.

From paper PMC9090415, “Discovery of small molecule inhibitors of Plasmodium falciparum apicoplast DNA polymerase” (Journal of Enzyme Inhibition and Medicinal Chemistry, 2022)
